Laboratory results from ChEMBL document CHEMBL5329196, “Development of truncated Battacin antimicrobials featuring novel N-terminal fatty acids with an excellent safety profile” (Bioorg Med Chem Lett, 2023).
In brackets after ≈: the same amount, converted by molar mass. Where a SMILES comes first, the peptide text is derived from it.

Experiments:
[1] = Pro-aggregation of the compound in human NCI-H460 cells at 1 mM by Bright field microscopic analysis; type: physicochemical, cell-based; conditions: nci-h460, 1000 µM
[2] = Pro-aggregation of the compound in human MDA-MB-231 cells at 1 mM by fluorescence microscopic analysis; type: physicochemical, cell-based; conditions: mda-mb-231, 1000 µM
NCI-H460 = test: (§1) Cytotoxicity against human NCI-H460 cells assessed as reduction in cell viability measured after 24 hrs by quantitative live/dead fluorescence microscopy; type: toxicity, cell-based; conditions: nci-h460
[3] = Pro-aggregation of the compound in human NCI-H460 cells at 1 mM by fluorescence microscopic analysis; type: physicochemical, cell-based; conditions: nci-h460, 1000 µM
MDA-MB-231 = test: (§2) Cytotoxicity against human MDA-MB-231 cells assessed as reduction in cell viability measured after 24 hrs by quantitative live/dead fluorescence microscopy; type: toxicity, cell-based; conditions: mda-mb-231
[4] = Pro-aggregation of the compound in human MDA-MB-231 cells at 1 mM by Bright field microscopic analysis; type: physicochemical, cell-based; conditions: mda-mb-231, 1000 µM
Erythrocyte = test: (§3) Induction of hemolysis in mouse RBC assessed as induction of hemoglobin release incubated for 1 hr by absorbance based analysis; type: toxicity, cell-based; conditions: erythrocyte
[5] = as §1; type: toxicity, cell-based; conditions: human, NCI-H460 cells
Staphylococcus aureus = test: Antibacterial activity against Staphylococcus aureus assessed as inhibition of bacterial growth incubated for 24 hrs by visual inspection analysis; type: functional
[6] = as §2; type: toxicity, cell-based; conditions: human, MDA-MB-231 cells
[7] = Therapeutic index, ratio of EC50 for induction of hemolytic activity against mouse RBC to MIC for antibacterial activity against Staphylococcus aureus; type: toxicity; conditions: mouse red blood cells (erythrocytes), read-out: TI
[8] = Selectivity ratio of EC50 for cytotoxicity against human MDA-MB-231 cells to EC50 for cytotoxicity against human NCI-H460 cells; type: functional
[9] = as §3; type: toxicity, cell-based, Erythrocyte; conditions: mouse, mouse red blood cells (erythrocytes)
[10] = Induction of hemolysis in mouse RBC assessed as induction of hemoglobin release at ~400 uM incubated for 1 hr by absorbance based analysis; type: toxicity, cell-based, Erythrocyte; conditions: mouse red blood cells (erythrocytes), read-out: Activity
[11] = Induction of hemolysis in mouse RBC assessed as induction of hemoglobin release at ~100 uM incubated for 1 hr by absorbance based analysis; type: toxicity, cell-based, Erythrocyte; conditions: mouse red blood cells (erythrocytes), read-out: Activity

Activity [1] | Activity [2] | Activity [3] | Activity [4] | MIC (Staphylococcus aureus) [µM] | Compound | further results
Not Active | Not Active | Not Active | Not Active | – | POLYMYXIN B | EC50 (NCI-H460): 181 µM; EC50 (MDA-MB-231): > 1 mM; EC50 (Erythrocyte): ≥ 1 mM
Active | Active | Active | Active | 1 (≈ 0.764 µg/mL) | CC(C)C[C@H](NC(=O)[C@H](CCN)NC(=O)[C@@H](CCN)NC(=O)C(C)C(C)/C=C/c1ccccc1)C(=O)N[C@H](Cc1ccccc1)C(=O)N[C@@H](CCN)C(N)=O (stereo partly drawn) | EC50 at 24 h [5]: 324 µM; EC50 at 24 h [6]: 898 µM; selectivity ratio [7]: > 267; Ratio EC50 [8]: 2; EC50 at 1 h [9]: ≥ 400 µM; hemolysis at 1 h, 400 µM [10]: 3.4%
– | – | – | – | 4.5 (≈ 3.1 µg/mL) | CCC(C)CCC(=O)N[C@H](CCN)C(=O)N[C@@H](CCN)C(=O)N[C@@H](CC(C)C)C(=O)N[C@H](Cc1ccccc1)C(=O)N[C@@H](CCN)C(N)=O (stereo partly drawn) (HELM PEPTIDE1{[CCC(C)CCC(=O)[*:2]].[NCC[C@@H](N[*:1])C(=O)[*:2]].[Dab].L.[dF].[Dab].[am]}$$$$V2.0) | –
Active | Active | Active | Active | 1 (≈ 0.792 µg/mL) | CCCCc1ccc(/C=C/CCC(=O)N[C@H](CCN)C(=O)N[C@@H](CCN)C(=O)N[C@@H](CC(C)C)C(=O)N[C@H](Cc2ccccc2)C(=O)N[C@@H](CCN)C(N)=O)cc1 | EC50 at 24 h [5]: 31 µM; EC50 at 24 h [6]: 67 µM; selectivity ratio [7]: 60; Ratio EC50 [8]: 2; hemolysis at 1 h, 100 µM [11]: 56%; EC50 at 1 h [9]: ~90 µM; hemolysis at 1 h, 400 µM [10]: 77%
Active | Active | Active | Active | 1 (≈ 0.794 µg/mL) | CCCOc1ccc(/C=C/CCC(=O)N[C@H](CCN)C(=O)N[C@@H](CCN)C(=O)N[C@@H](CC(C)C)C(=O)N[C@H](Cc2ccccc2)C(=O)N[C@@H](CCN)C(N)=O)cc1 | EC50 at 24 h [5]: 90 µM; EC50 at 24 h [6]: 221 µM; selectivity ratio [7]: 135; Ratio EC50 [8]: 2; hemolysis at 1 h, 100 µM [11]: 2.1%; EC50 at 1 h [9]: ~330 µM
– | – | – | – | 18.2 (≈ 12.5 µg/mL) | C=CC(C)C(C)C(=O)N[C@H](CCN)C(=O)N[C@@H](CCN)C(=O)N[C@@H](CC(C)C)C(=O)N[C@H](Cc1ccccc1)C(=O)N[C@@H](CCN)C(N)=O (stereo partly drawn) | –
– | – | – | – | 2.1 (≈ 1.55 µg/mL) | CC(C)C[C@H](NC(=O)[C@H](CCN)NC(=O)[C@@H](CCN)NC(=O)CC/C=C/c1ccccc1)C(=O)N[C@H](Cc1ccccc1)C(=O)N[C@@H](CCN)C(N)=O | –
– | – | – | – | 2 (≈ 1.53 µg/mL) | COc1ccc(/C=C/CCC(=O)N[C@H](CCN)C(=O)N[C@@H](CCN)C(=O)N[C@@H](CC(C)C)C(=O)N[C@H](Cc2ccccc2)C(=O)N[C@@H](CCN)C(N)=O)cc1 | –
– | – | – | – | 1 (≈ 0.764 µg/mL) | CCc1ccc(/C=C/CCC(=O)N[C@H](CCN)C(=O)N[C@@H](CCN)C(=O)N[C@@H](CC(C)C)C(=O)N[C@H](Cc2ccccc2)C(=O)N[C@@H](CCN)C(N)=O)cc1 | –
– | – | – | – | 75.8 (≈ 50 µg/mL) | C=CCCC(=O)N[C@H](CCN)C(=O)N[C@@H](CCN)C(=O)N[C@@H](CC(C)C)C(=O)N[C@H](Cc1ccccc1)C(=O)N[C@@H](CCN)C(N)=O | –
– | – | – | – | 1.3 (≈ 0.756 µg/mL) | CN[C@@H]1[C@H](O[C@H]2[C@H](O[C@H]3[C@H](O)[C@@H](O)[C@H](N=C(N)N)[C@@H](O)[C@@H]3N=C(N)N)O[C@@H](C)[C@]2(O)C=O)O[C@@H](CO)[C@H](O)[C@H]1O [STREPTOMYCIN] | –
